Drawing on PubChem BioAssay AID549 (SRMLSC, 2006), this text covers outcome for 94 compounds.

Activity calls are given as the source filed them.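 The calls were made as follows: active = clearly stronger inhibition of phosphomevalonate kinase than of the coupling enzymes alone in a parallel counterscreen; inactive = the rest.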

In this experiment the target is phosphomevalonate kinase (Streptococcus pneumoniae D39). The experiment is described as follows: S. pneumoniae PMK inhibitor potency, dose response, biochemical, mevalonate pathway, coupling enzyme counter-screen (AID 549). As to conditions: PK/LDH coupled NADH absorbance 340 nm. For orientation: The purpose of a counterscreen is to sort out artefacts and off-target activity.
Turning to `CC(C)CCn1nnnc1C(c1ccc(F)cc1)N1CCN(C(=O)c2ccco2)CC1` (centres undefined), the outcome was inactive.

Consider `Cc1nnc(SCc2ccccc2)n1N`, for which the outcome was inactive.

Turning to `CCS(=O)(=O)N1CCC(C(=O)NCC2CCCO2)CC1` (centres undefined), the result was inactive.

As to `COCCCNC(=O)C1C2C=CC3(CN(Cc4ccc(C)cc4)C(=O)C13)O2` (centres undefined), the result was inactive.

Regarding `CC(CN1CCN(C)CC1)OC(=O)c1ccc(Cl)cc1` (centres undefined), the outcome was inactive.

Consider `O=C(CCSc1nc(-c2ccc3c(c2)OCO3)cc(C(F)(F)F)n1)NCc1ccco1`, for which the outcome was inactive.

As for `O=C(COC(=O)CCc1c[nH]c(=O)[nH]1)Nc1ccccc1`, the result was inactive.

Regarding `CCOc1cc(N2CCOCC2)c(OCC)cc1NC(=O)Cc1ccc(OC)c(OC)c1`, the outcome was inactive.

For `N#CC(C(=O)NC1CCCCC1)c1nc2ccccc2nc1N1CCCCC1` (centres undefined), the result was inactive.

`CCC(Sc1nccn1C)C(=O)Nc1cccc2ccccc12` (centres undefined): the result was inactive.

Consider `CCOC(=O)C1CCCN(C(=O)C2CCCN(S(C)(=O)=O)C2)C1` (centres undefined), for which the result was inactive.

For the compound `O=C(c1cc2nc(-c3ccco3)cc(C(F)(F)F)n2n1)N1CCc2ccccc2C1`, the result was inactive.

Regarding `CC(C)=CC(=O)Nc1ccc(Br)cc1`, the outcome was inactive.

On to `Cc1ccc(-c2nnn(CC(=O)N(CC(=O)NCC3CCCO3)c3ccc(F)c(Cl)c3)n2)o1` (centres undefined), for which the outcome was inactive.

Turning to `O=C(NCc1cccs1)C1CCCN(c2nc3ccccc3o2)C1` (centres undefined), the outcome was inactive.

As to `O=c1oc2c3c4c(cc2cc1-c1nc2ccccc2[nH]1)CCCN4CCC3`, the result was inactive.

Turning to `CCOC(=O)C1=C(NC(=O)c2ccc(Br)o2)Nc2ccccc2N=C1`, the outcome was inactive.

Consider `Cc1ccc(Cl)cc1N1CCN(Cc2nnnn2C2CCCCC2)CC1`, for which the result was inactive.

In the case of `CCOC(=O)N1CCN(C(=O)C2CCN(S(=O)(=O)N3CCCC3)CC2)CC1`, the outcome was inactive.

`CCOc1ccc(Nc2nc(Cc3nnc(SCC(N)=O)o3)cs2)cc1`: the result was inactive.

For the compound `CCS(=O)(=O)N1CCC(C(=O)NCc2ccco2)CC1`, the result was inactive.

For `CCC(C)(C)n1nnnc1C(c1cccnc1)N1CCCc2ccccc21` (centres undefined), the result was inactive.

`CCOc1ccc(-c2nnc(SCC(=O)N3CCN(c4ccccc4)CC3)o2)cc1`: the result was inactive.

As to `CC(c1ccccc1)C(CC(=O)O)C(=O)NC1CCCCC1` (centres undefined), the result was inactive.

Consider `CCc1nnc(NC(=O)c2cccs2)s1`, for which the result was inactive.

In the case of `Cn1c(=O)c2c(-c3ccccc3)n(C3CCCCC3)cc2n(C)c1=O`, the outcome was inactive.

For the compound `Cc1csc(C(C#N)C(=O)c2ccc(S(=O)(=O)N3CCCC3)cc2)n1` (centres undefined), the outcome was inactive.

`COc1ccc(OC)c(CNC(=O)C2CCCN(c3nc4ccccc4o3)C2)c1` (centres undefined): the outcome was inactive.

`Cc1occc1C(=O)Nc1nnc(C(F)(F)F)s1`: the result was inactive.

As for `Cc1nc(NC(=O)c2ccco2)sc1C(=O)Nc1ccc(Br)cc1`, the result was inactive.

On to `Cn1c2ccccc2c2cnn(CC(=O)N3CCN(c4ncccn4)CC3)c(=O)c21`, for which the result was inactive.

As for `CCOCCCNC(=O)C1CCN(S(=O)(=O)CC)CC1`, the result was inactive.

As to `CCCCNc1nc2c(c(=O)n(C)c(=O)n2C)n1CCC`, the outcome was inactive.

On to `Cn1c(SCC(=O)N2CCOCC2)nnc1-c1ccc(NC(=O)c2ccccc2F)cc1`, for which the result was inactive.

Regarding `Cn1c(=O)c2c(nc(N3CCOCC3)n2C)n(C)c1=O`, the outcome was inactive.

Regarding `COc1ccc(S(=O)(=O)N2CCN(C3CCCCCCC3)CC2)cc1`, the result was inactive.

For `O=C(NCc1ccc2c(c1)OCO2)c1cc2n(n1)C(C(F)(F)F)CC(c1ccc3c(c1)OCO3)N2` (centres undefined), the outcome was inactive.

For the compound `CCOC(=O)C1=C(C)NC(=O)NC1/C(C)=C/c1ccccc1` (centres undefined), the outcome was inactive.

Consider `CCOC(=O)C1=C(N)OC2=C(C(=O)CCC2)C1c1ccc(C)s1` (centres undefined), for which the outcome was inactive.

On to `O=C(c1cc(-c2ccco2)on1)N1CCCc2ccccc21`, for which the outcome was inactive.

Take `O=C(CCc1nc2ccccc2c(=O)[nH]1)OCC(=O)N1CCN(S(=O)(=O)c2ccccc2)CC1`: the outcome was inactive.

In the case of `CCn1c(COc2ccccc2C)nnc1SCC(=O)N1CCCCC1`, the outcome was inactive.

On to `CS(=O)(=O)N1CCCC(C(=O)N2CCOCC2)C1` (centres undefined), for which the outcome was inactive.

For the compound `CCOc1cc(C#N)c(NC(=O)c2cccnc2)cc1OCC`, the outcome was inactive.

On to `Cc1ccc(-n2nc3c(c2NC(=O)c2c(-c4ccccc4Cl)noc2C)CS(=O)(=O)C3)c(C)c1`, for which the outcome was inactive.

Regarding `CCOC(=O)C1=C(O)C(=O)N(c2ccc(S(N)(=O)=O)cc2)C1c1ccc(OC)cc1` (centres undefined), the result was inactive.

`Cc1cc(NCCCN2CCOCC2)n2nc(C)c(-c3ccc(F)cc3)c2n1`: the result was inactive.

Turning to `COCCNC(=O)C1CCCN(c2nn3c(=O)cc(C)nc3s2)C1` (centres undefined), the outcome was inactive.

Take `CCCN1CCN(CCCNC(=O)Cn2nc(-c3ccccc3)ccc2=O)CC1`: the result was inactive.

Consider `CC1(C)CC(=O)C(C(C2=C(O)CC(C)(C)CC2=O)c2cccc(O)c2)C(=O)C1` (centres undefined), for which the outcome was inactive.

For `CCOC(=O)CSc1n[nH]c(-c2cccnc2)n1`, the outcome was inactive.

As to `COC(=O)CNc1nc(-c2ccccc2F)nc2ccccc12`, the outcome was inactive.

Turning to `CCC(=O)N(Cc1ccco1)c1nc(-c2ccccc2)cs1`, the result was inactive.

As for `COc1ccc(CNC(=O)C2CCN(S(=O)(=O)c3cccc4cccnc34)CC2)cc1`, the result was inactive.

In the case of `COc1ccc2c(c1)c(C(=O)CNc1nc(C)cs1)c(C)n2C`, the outcome was inactive.

Take `c1ccc2sc(SCc3ccc(-c4nnco4)cc3)nc2c1`: the result was inactive.

Consider `COc1ccc(OCC(=O)N2CCN(c3nnc(-c4ccccc4)c4ccccc34)CC2)cc1`, for which the outcome was inactive.

For `Cc1csc(NC(=O)C2CCC(C)(C(=O)O)C2(C)C)n1` (centres undefined), the result was inactive.

For `COc1ccc(N2C(C)=CS/C2=C(/C#N)c2nnc(N3CCOCC3)n2-c2ccccc2)cc1`, the result was inactive.

As for `Cc1nc(SC2C=CS(=O)(=O)C2)n[nH]1` (centres undefined), the result was inactive.

Consider `Cc1nnc(SCC(=O)Nc2ncc(Cc3ccc(F)cc3)s2)n1N`, for which the outcome was inactive.

On to `Cc1c2cnn(CC(=O)N3CCC4(CC3)OCCO4)c(=O)c2c(C)n1Cc1ccc(F)cc1`, for which the outcome was inactive.

For the compound `Cn1c(SCC(=O)NCc2ccco2)nc2ccccc2c1=O`, the result was inactive.

As to `c1ccc(NC(=NCc2ccco2)c2ccccc2)cc1`, the result was inactive.

For `CCOC(=O)N1CCC(NC(=O)CSc2cc(=O)n(C)c3ccccc23)CC1`, the result was inactive.

For the compound `CCCn1cnc2c(cnn2-c2ccc(F)cc2)c1=O`, the result was inactive.

In the case of `CCOCCCN1C(=O)CN(C2CCCCC2)C(=O)C1c1ccc(OCC)c(OC)c1` (centres undefined), the result was inactive.

For the compound `CC(C)OC(=O)C1C(=O)CC(C)(O)C(C(=O)OC(C)C)C1c1cccnc1` (centres undefined), the outcome was inactive.

Turning to `CCOc1cc(C(=O)NCc2nnc(SCC(=O)OC)n2C)cc(OCC)c1OCC`, the outcome was inactive.

For the compound `CC1(C)CC(=O)c2cc(OCC(=O)N3CCN(c4ccccc4F)CC3)ccc2O1`, the result was inactive.

With `O=C(c1n[nH]c(=O)c2ccccc12)N1CCN(C2c3ccccc3-c3ccccc32)CC1`, the outcome was inactive.

`CN(C(=O)c1cnccn1)c1nnc(-c2cccnc2)s1`: the outcome was inactive.

For `N=c1n(CCN2CCOCC2)c2ccccc2n1CC(=O)c1ccc(Cl)c(Cl)c1`, the outcome was inactive.

As for `CCc1nnc(NC(=O)CSc2nnc(Cc3cccn3C)n2C)s1`, the outcome was inactive.

In the case of `Cc1ccccc1OCCCCc1c(C)n[nH]c1C`, the outcome was inactive.

Take `CCn1c(SCC(=O)c2[nH]c(C)c(C(C)=O)c2C)nnc1-c1cccs1`: the result was inactive.

On to `NC(=O)CCN(Cc1ccccc1)S(=O)(=O)c1ccccc1`, for which the outcome was inactive.

On to `COC(=O)c1cn(-c2ccccc2)nc1C(=O)OC`, for which the result was inactive.

As to `COc1ccccc1CNC(=O)C1CCN(S(=O)(=O)N2CC(C)CC(C)C2)CC1` (centres undefined), the result was inactive.

Turning to `COCc1cc(=O)[nH]c(Nc2nc(C)c3ccc(C)cc3n2)n1`, the outcome was inactive.

As for `CCC(C)(C)NC(=O)C(c1ccccc1F)N(Cc1ccco1)C(=O)c1csnn1` (centres undefined), the outcome was inactive.

In the case of `CC(C)COC(=O)n1ccc(C(=O)N2CCCCC2)n1`, the result was inactive.

`CCNC(=O)CN(c1ccc(C)cc1)S(=O)(=O)c1ccc(SC)cc1`: the outcome was inactive.

As to `CCOC(=O)CC(=O)CSc1nnc2c(n1)[nH]c1ccccc12`, the outcome was inactive.

In the case of `Cn1nc(CC(=O)Nc2ncc(Br)s2)c2ccccc2c1=O`, the result was inactive.

With `CC(C)CN(CC(C)C)S(=O)(=O)N1CCC(C(=O)NC2CCCCCCC2)CC1`, the outcome was inactive.

As for `CC12C=CC3(CN(Cc4ccccc4)C(=O)C3C1C(=O)NC1CC1)O2` (centres undefined), the outcome was inactive.

`CCN(CC)CCSc1nc(O)c(C(C)C)c(=O)[nH]1`: the outcome was inactive.

Turning to `CC1SC(=NC(=O)c2ccco2)NC1=O` (centres undefined), the result was inactive.

Regarding `COc1ccc(C(c2nnnn2CC2CCCO2)N2CCN(c3ccccc3)CC2)cc1` (centres undefined), the result was inactive.

For `Cc1csc(NC(=O)CN2CCCCCC2)n1`, the result was inactive.

As to `CCOC(=O)c1c(C)n(C)c2ccc(OC)c(NS(=O)(=O)c3ccc(Cl)s3)c12`, the outcome was inactive.

As for `Cc1sc2ncnc(NCC(c3ccco3)N(C)C)c2c1C` (centres undefined), the outcome was inactive.

`COc1ccc2c(c1OC)C(=O)OC2C1c2c(cc3c(c2OC)OCO3)CCN1C` (centres undefined): the outcome was inactive.
